Source: patent US6656940B2, “Tricyclic quinoxaline derivatives as protein tyrosine kinase inhibitors” (Sugen, Inc., priority 1997, dated 2003)

Tests used:
[1] = biological target: T1, FLK-1 receptor (Mus musculus, UniProt P35918); assay: FLK-1 ELISA (cellular/catalytic); assay type: cell-based; settings: 50% inhibition of PTK activity compared to that in a control; read-out: FLK KINASE IC50
T1 construct: expressed in transfected cells; host or cells: NIH3T3 C7#3 cells
Experimental: (§1) The cellular/catalytic assays described herein are performed in an ELISA format. The general procedure is as follows: a compound is introduced to cells expressing the test kinase, either naturally or recombinantly, for a selected period of time after which, if the test kinase is a receptor, a ligand known to activate the receptor's activity is added. The cells are lysed and the lysate is transferred to the wells of an ELISA plate previously coated with a specific antibody recognizing the substrate of the enzymatic phosphorylation reaction. Non-substrate components of the cell lysate are washed away and the amount of phosphorylation on the substrate is detected with an antibody specifically recognizing phosphotyrosine and is compared with that of control cells that were not contacted with the test compound.
An ELISA assay is conducted to measure the kinase activity of the FLK-1 receptor and more specifically, the inhibition or activation of TK activity on the FLK-1 receptor. Specifically, the following assay can be conducted to measure kinase activity of the FLK-1 receptor in cells genetically engineered to express Flk-1.
k. NIH3T3 C7#3 Cells (FLK-1 expressing cells);
1. Coat Corning 96-well ELISA plates with 1.0 μg per well Cappel Anti-rabbit IgG antibody in 0.1M Na2CO3 pH 9.6. Bring final volume to 150 μl per well. Coat plates overnight at 4° C. […]

[2] = biological target: T2, human EGF-R (Homo sapiens, UniProt P00533); assay: EGF Receptor ELISA (cellular/catalytic); assay type: cell-based; settings: 50% inhibition of PTK activity compared to that in a control; read-out: EGFR KINASE IC50
T2 construct: expressed in transfected cells; host or cells: NIH 3T3/C7 cell line
T2 sequence (P00533 25-1210): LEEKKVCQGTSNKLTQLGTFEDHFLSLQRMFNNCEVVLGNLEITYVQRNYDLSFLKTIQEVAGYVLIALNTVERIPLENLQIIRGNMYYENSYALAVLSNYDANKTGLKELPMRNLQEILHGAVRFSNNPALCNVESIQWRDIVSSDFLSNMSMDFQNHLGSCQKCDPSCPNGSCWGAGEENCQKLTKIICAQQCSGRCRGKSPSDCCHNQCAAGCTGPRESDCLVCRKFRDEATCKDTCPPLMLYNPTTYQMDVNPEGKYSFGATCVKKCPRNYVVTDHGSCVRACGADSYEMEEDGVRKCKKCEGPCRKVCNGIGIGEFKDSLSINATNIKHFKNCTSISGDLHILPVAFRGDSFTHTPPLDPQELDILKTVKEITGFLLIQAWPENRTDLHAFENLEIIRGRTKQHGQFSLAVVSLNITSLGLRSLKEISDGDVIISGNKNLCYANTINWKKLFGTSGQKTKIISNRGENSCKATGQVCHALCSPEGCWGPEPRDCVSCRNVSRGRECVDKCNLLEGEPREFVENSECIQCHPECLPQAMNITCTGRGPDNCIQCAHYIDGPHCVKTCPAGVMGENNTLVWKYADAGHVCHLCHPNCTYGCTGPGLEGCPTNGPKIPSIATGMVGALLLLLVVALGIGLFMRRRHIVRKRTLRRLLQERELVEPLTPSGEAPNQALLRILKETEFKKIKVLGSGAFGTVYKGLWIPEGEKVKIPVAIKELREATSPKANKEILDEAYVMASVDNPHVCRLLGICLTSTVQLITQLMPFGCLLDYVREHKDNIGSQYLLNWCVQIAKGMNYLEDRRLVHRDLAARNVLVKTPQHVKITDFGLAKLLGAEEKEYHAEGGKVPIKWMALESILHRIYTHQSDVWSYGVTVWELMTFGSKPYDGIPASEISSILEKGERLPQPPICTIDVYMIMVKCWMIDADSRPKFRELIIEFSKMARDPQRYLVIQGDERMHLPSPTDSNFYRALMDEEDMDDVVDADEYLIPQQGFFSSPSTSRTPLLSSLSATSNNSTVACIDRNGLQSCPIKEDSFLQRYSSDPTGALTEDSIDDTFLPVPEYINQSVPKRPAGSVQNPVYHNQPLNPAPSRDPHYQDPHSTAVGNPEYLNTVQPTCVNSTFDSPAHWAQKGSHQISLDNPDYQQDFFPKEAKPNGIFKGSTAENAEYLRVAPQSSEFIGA
Experimental: as §1
EGF Receptor kinase activity in cells genetically engineered to express human EGF-R can be measured as described below:
1. NIH 3T3/C7 cell line (Honegger, et al., Cell 51:199-209, 1987) can be use for this assay.
3. Resuspend cells in seeding medium (DMEM, 0.5% bovine serum), and count the cells using trypan blue. […]
12. The maximal phosphotyrosine signal is determined by subtracting the value of the negative controls from the positive controls. The percent inhibition of phosphotyrosine content for extract-containing wells is then calculated, after subtraction of the negative controls.

T1 sequence (P35918 20-1345): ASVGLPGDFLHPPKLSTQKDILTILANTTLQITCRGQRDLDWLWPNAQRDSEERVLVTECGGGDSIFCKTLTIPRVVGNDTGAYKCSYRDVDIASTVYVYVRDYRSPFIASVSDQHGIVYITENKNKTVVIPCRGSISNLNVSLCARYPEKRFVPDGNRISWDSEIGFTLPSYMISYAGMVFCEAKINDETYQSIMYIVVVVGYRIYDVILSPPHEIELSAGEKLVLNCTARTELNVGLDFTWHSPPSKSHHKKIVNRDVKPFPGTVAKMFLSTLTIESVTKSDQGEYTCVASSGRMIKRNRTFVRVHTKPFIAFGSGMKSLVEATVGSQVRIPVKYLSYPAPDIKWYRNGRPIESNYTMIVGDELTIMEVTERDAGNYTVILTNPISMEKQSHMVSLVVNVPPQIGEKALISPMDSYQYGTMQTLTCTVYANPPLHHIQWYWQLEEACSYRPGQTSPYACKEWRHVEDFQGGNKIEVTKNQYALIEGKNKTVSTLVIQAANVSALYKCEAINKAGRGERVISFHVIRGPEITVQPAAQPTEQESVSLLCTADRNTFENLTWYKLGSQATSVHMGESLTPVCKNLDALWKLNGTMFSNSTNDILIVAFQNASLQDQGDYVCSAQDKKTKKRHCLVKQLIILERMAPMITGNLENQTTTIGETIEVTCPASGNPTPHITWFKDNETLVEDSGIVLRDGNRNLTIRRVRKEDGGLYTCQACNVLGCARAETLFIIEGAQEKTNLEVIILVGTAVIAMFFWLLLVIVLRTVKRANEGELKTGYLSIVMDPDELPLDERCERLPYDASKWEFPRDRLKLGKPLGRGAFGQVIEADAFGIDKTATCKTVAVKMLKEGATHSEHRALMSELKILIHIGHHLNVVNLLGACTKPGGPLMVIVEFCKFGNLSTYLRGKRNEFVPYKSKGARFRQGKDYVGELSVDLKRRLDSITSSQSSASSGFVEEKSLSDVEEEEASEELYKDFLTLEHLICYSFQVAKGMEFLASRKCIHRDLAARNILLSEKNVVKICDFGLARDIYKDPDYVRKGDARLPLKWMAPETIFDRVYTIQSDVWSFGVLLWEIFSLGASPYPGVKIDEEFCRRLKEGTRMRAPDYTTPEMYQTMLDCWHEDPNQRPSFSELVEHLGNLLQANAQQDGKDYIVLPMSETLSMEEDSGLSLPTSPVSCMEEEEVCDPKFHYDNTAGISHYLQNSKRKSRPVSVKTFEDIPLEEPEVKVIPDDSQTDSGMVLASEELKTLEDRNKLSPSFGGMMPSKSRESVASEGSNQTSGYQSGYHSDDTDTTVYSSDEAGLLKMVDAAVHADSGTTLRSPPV

Cc1nc2c(nc1C)CC1=NC(c3ccccc3)=NC1=C2 [6,7-dimethyl-2-phenylimidazo[4,5-g]quinoxaline]
IC50 [1]: 88.4 µM
IC50 [2]: > 100 µM
